Assays:
Type in all cases: cell-based
[1] = test system: hepatocellular carcinoma cell line Hep3B; experiment: Growth inhibition of Hep3B cells, 48 hr treatment, Hoechst 33342 nucleus count (GE InCell 2200); conditions: Homo sapiens
In short: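 Compound exposure lasted 48 hr at 37° C, 5% CO2. Surviving nuclei were counted after Hoechst 33342 staining, and survival was expressed as the treated/non-treated cell number ratio, including the ratio at 10 μM compound.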

[2] = test system: Hep3B hepatocellular carcinoma cell line; experiment: MTS cell viability assay (NCI-60 methodology), GI50/LC50, Hep3B; conditions: Homo sapiens, 48 h, Hep3B cells, 2 days incubation with compound
Method: (§1) The number of treated cells was determined by GE InCell 2200 system, and treated cells were stained with Hoechst 33342 which can reveal the remained nucleus in culture plate. The proportion of survival cells then were calculated with the ratio of treated/non-treated cells. The growth inhibition/cytotoxic effect of selected compounds were evaluated by the following protocol of NCI-60 screening platform. The human tumor cell lines are plating on a 96 well plate in a fixed density 24 hr prior compound treatment. Compounds with multiple concentrations are then added into each well for further 48 hr incubation. Cell viability is assessed by MTS method and the potency of compound is represented by GI50 and LC50 calculated by MTS result.
(§2) The cell viability measurement is based on the NCI-60 screening methodology (Nat. Rev. Cancer 6, 813-823, 2006). Briefly, cells are inoculated into 96-well plates at the optimal plating density. After 24 h, one of the two plates for each cell line is processed to determine a time zero cell viability (Tz) by MTS assay (Promega). Compounds are added over a 2-fold serial dilution to provide a total five drug concentrations plus DMSO control. Plates are incubated for a further 2 days, then measured cell viability by MTS assay [control growth (C) and test growth in the presence of drug at the five concentration levels (Ti)]. Growth inhibition of 50% (GI50) is calculated from [(Ti−Tz)/(C−Tz)]×100=50, which is the drug concentration resulting in a 50% reduction of control cells during the drug incubation. The LC50 is calculated from [(Ti−Tz)/Tz]×100=−50, which is the drug concentration resulting in a 50% reduction at the end of the drug treatment as compared to that at the beginning.
(§3) Herein, Hep3B refers to hepatocellular carcinoma cell line, SW480 refers to colon adenocarcinoma cell line, and NCI-H460 refers to human lung cancer cell line.

[3] = test system: SW480 colon adenocarcinoma cell line; experiment: MTS cell viability assay (NCI-60 methodology), GI50/LC50, SW480; conditions: Homo sapiens, 48 h, SW480 cells, 2 days incubation with compound
Method: as §1, §2, §3

[4] = test system: NCI-H460 human lung cancer cell line; experiment: MTS cell viability assay (NCI-60 methodology), GI50/LC50, NCI-H460; conditions: 48 h, NCI-H460 cells, 2 days incubation with compound
Method: as §1, §2, §3

[5] = Table 1, ratio of number of tumor cells treated with 10 μM compound to non-treated cells
[6] = Table 5, ratio of number of tumor cells treated with 10 μM compound to non-treated cells

Structure (SMILES) | viability at 10 µM [1, 5] | GI50 [2] | LC50 [2] | GI50 [3] | LC50 (NCI-60 lethal concentration, 50% net cell loss vs time zero) [3] | GI50 [4] | LC50 (concentration giving 50% net cell loss versus time zero, NCI-60 definition) [4] | viability at 10 µM ([1]; Table 3, ratio of number of tumor cells treated with 10 μM compound to non-treated cells) | viability at 10 µM [1, 6]
CCOc1ccc(-c2nnc(NC(=O)Cc3ccc4nc(N)sc4c3)s2)cc1 [Compound 1-2, 2-(2-aminobenzo[d]thiazol-6-yl)-N-(5-(4-ethoxyphenyl)-1,3,4-thiadiazol-2-yl)acetamide] | 61% | 0.16 µM | 0.48 µM | 3.55 µM | 8.93 µM | 0.86 µM | 1.24 µM |  | 
Nc1nc2ccc(CC(=O)Nc3nnc(-c4ccc(Br)cc4)s3)cc2s1 [Compound 1-7, 2-(2-aminobenzo[d]thiazol-6-yl)-N-(5-(4-bromophenyl)-1,3,4-thiadiazol-2-yl)acetamide] |  | 3.17 µM | 9.4 µM | 7.7 µM |  |  |  |  | 
CCCOc1ccccc1-c1nnc(NC(=O)Cc2ccc3nc(N)sc3c2)s1 [Compound 1-10, 2-(2-aminobenzo[d]thiazol-6-yl)-N-(5-(2-propoxyphenyl)-1,3,4-thiadiazol-2-yl)acetamide] | 61% | 0.17 µM | 0.55 µM | 0.9 µM | 5.17 µM |  |  |  | 
CC(C)Oc1ccccc1-c1nnc(NC(=O)Cc2ccc3nc(N)sc3c2)s1 [Compound 1-15, 2-(2-aminobenzo[d]thiazol-6-yl)-N-(5-(2-isopropoxyphenyl)-1,3,4-thiadiazol-2-yl)acetamide] | 56% | 0.17 µM | 0.5 µM | 0.62 µM |  |  |  |  | 
CCC(CC)Oc1ccc(-c2nnc(NC(=O)Cc3ccc4nc(N)sc4c3)s2)cc1 [Compound 1-16, 2-(2-aminobenzo[d]thiazol-6-yl)-N-(5-(4-(pentan-3-yloxy)phenyl)-1,3,4-thiadiazol-2-yl)acetamide] | 84% | 2.83 µM | 4.34 µM | 7.26 µM |  |  |  |  | 
CCCOc1ccc(-c2nnc(NC(=O)Cc3ccc4nc(N)sc4c3)s2)cc1 [Compound 1-17, 2-(2-aminobenzo[d]thiazol-6-yl)-N-(5-(4-propoxyphenyl)-1,3,4-thiadiazol-2-yl)acetamide] | 82% | 0.6 µM | 0.89 µM | 1.81 µM |  |  |  |  | 
CCOc1ccc(-c2nnc(NC(=O)Cc3ccc4nc(N)sc4c3)s2)c(OCC)c1 [Compound 1-18, 2-(2-aminobenzo[d]thiazol-6-yl)-N-(5-(2,4-diethoxyphenyl)-1,3,4-thiadiazol-2-yl)acetamide] | 70% | 0.16 µM | 0.48 µM | 0.19 µM | 0.58 µM | 0.2 µM | 0.6 µM |  | 
CCCCOc1ccccc1-c1nnc(NC(=O)Cc2ccc3nc(N)sc3c2)s1 [Compound 1-20, 2-(2-aminobenzo[d]thiazol-6-yl)-N-(5-(2-butoxyphenyl)-1,3,4-thiadiazol-2-yl)acetamide] | 81% | 0.21 µM | 0.63 µM | 1.15 µM |  |  |  |  | 
CCC(CC)Oc1ccccc1-c1nnc(NC(=O)Cc2ccc3nc(N)sc3c2)s1 [Compound 1-22, 2-(2-aminobenzo[d]thiazol-6-yl)-N-(5-(2-(pentan-3-yloxy)phenyl)-1,3,4-thiadiazol-2-yl)acetamide] | 66% | 0.09 µM | 8.36 µM | 1.23 µM |  | 2.67 µM |  |  | 
CCCCOc1cc(OCC)ccc1-c1nnc(NC(=O)Cc2ccc3nc(N)sc3c2)s1 [Compound 1-23, 2-(2-aminobenzo[d]thiazol-6-yl)-N-(5-(2-butoxy-4-ethoxyphenyl)-1,3,4-thiadiazol-2-yl)acetamide] | 71% | 0.48 µM | 0.48 µM | 0.52 µM | 0.52 µM | 0.58 µM | 0.58 µM |  | 
CCOc1cnccc1-c1nnc(NC(=O)Cc2ccc3nc(N)sc3c2)s1 [Compound 1-25, 2-(2-aminobenzo[d]thiazol-6-yl)-N-(5-(3-ethoxypyridin-4-yl)-1,3,4-thiadiazol-2-yl)acetamide] | 54% | 0.17 µM | 0.5 µM | 0.35 µM | 1.04 µM | 0.32 µM |  |  | 
CCOc1ccc(-c2nnc(NC(=O)Cc3ccc4nc(N)sc4c3)s2)c(OCCN(C)C)c1 [Compound 1-29, 2-(2-aminobenzo[d]thiazol-6-yl)-N-(5-(2-(2-(dimethylamino)ethoxy)-4-ethoxyphenyl)-1,3,4-thiadiazol-2-yl)acetamide] |  | 0.2 µM | 1.1 µM | 3.34 µM |  | 5.2 µM |  |  | 
CCOc1ccc(-c2nnc(NC(=O)Cc3ccc4nc(N)sc4c3)s2)c(OCCOC)c1 [Compound 1-32, 2-(2-aminobenzo[d]thiazol-6-yl)-N-(5-(4-ethoxy-2-(2-methoxyethoxy)phenyl)-1,3,4-thiadiazol-2-yl)acetamide] |  | 0.17 µM | 0.54 µM | 0.23 µM | 0.69 µM | 0.14 µM | 0.6 µM |  | 
CCOc1cc(OCC)c(-c2nnc(NC(=O)Cc3ccc4nc(N)sc4c3)s2)cn1 [Compound 1-35, 2-(2-aminobenzo[d]thiazol-6-yl)-N-(5-(4,6-diethoxypyridin-3-yl)-1,3,4-thiadiazol-2-yl)acetamide] | 42% | 0.55 µM | 3.68 µM |  |  | 1.42 µM |  |  | 
Cc1ccc(-c2nc(NC(=O)Cc3ccc4nc(N)sc4c3)sc2-c2ccc(Br)cc2)cc1 [Compound 3-3, 2-(2-aminobenzo[d]thiazol-6-yl)-N-(5-(4-bromophenyl)-4-(p-tolyl)thiazol-2-yl)acetamide] |  | 1.14 µM |  | 7.97 µM |  |  |  | 71% | 
Cc1ccc(-c2nc(NC(=O)Cc3ccc4nc(N)sc4c3)sc2-c2ccc(F)cc2)cc1 [Compound 3-4, 2-(2-aminobenzo[d]thiazol-6-yl)-N-(5-(4-fluorophenyl)-4-(p-tolyl)thiazol-2-yl)acetamide] |  | 2.07 µM |  |  |  | 3.02 µM |  |  | 
CCOc1ccc(-c2nc(NC(=O)Cc3ccc4nc(N)sc4c3)sc2-c2ccc(F)cc2)cc1 [Compound 3-9, 2-(2-aminobenzo[d]thiazol-6-yl)-N-(4-(4-ethoxyphenyl)-5-(4-fluorophenyl)thiazol-2-yl)acetamide] |  | 2.27 µM |  | 8.95 µM |  | 2.39 µM |  |  | 
CCCOc1ccc(-c2nc(NC(=O)c3ccc([N+](=O)[O-])s3)sc2Oc2ccc(OC(F)(F)F)cc2)cc1 [Compound 5-8, 5-nitro-N-(4-(4-propoxyphenyl)-5-(4-(trifluoromethoxy)phenoxy)thiazol-2-yl)thiophene-2-carboxamide] |  | 3.43 µM |  |  |  | 3.01 µM | 4.66 µM |  | 24%
CCCOc1ccc(-c2nc(NC(=O)c3ccc([N+](=O)[O-])s3)sc2Oc2ccccc2)cc1 [Compound 5-9, 5-nitro-N-(5-phenoxy-4-(4-propoxyphenyl)thiazol-2-yl)thiophene-2-carboxamide] |  | 2.43 µM |  |  |  | 1.11 µM | 2.86 µM |  | 32%
CC(C)Oc1ccc(-c2nc(NC(=O)c3ccc([N+](=O)[O-])s3)sc2Oc2ccccc2)cc1 [Compound 5-10, N-(4-(4-isopropoxyphenyl)-5-phenoxythiazol-2-yl)-5-nitrothiophene-2-carboxamide] |  | 2.53 µM |  |  |  | 0.88 µM | 5.31 µM |  | 29%
O=C(Nc1nc(-c2ccc(Br)cc2)c(Oc2ccc(OC(F)(F)F)cc2)s1)c1ccc([N+](=O)[O-])s1 [Compound 5-18, N-(4-(4-bromophenyl)-5-(4-(trifluoromethoxy)phenoxy)thiazol-2-yl)-5-nitrothiophene-2-carboxamide] |  | 3.09 µM | 4.77 µM | 2.52 µM | 4.75 µM | 6.4 µM |  |  | 
Cc1ccc(-c2nc(NC(=O)c3ccc([N+](=O)[O-])s3)sc2-c2ccc(Br)cc2)cc1 [Compound 6-2, N-(5-(4-bromophenyl)-4-(p-tolyl)thiazol-2-yl)-5-nitrothiophene-2-carboxamide] |  | 1.27 µM | 1.94 µM | 0.97 µM | 2.72 µM |  |  |  | 

Reference: patent US11174253B2, “Compound and pharmaceutical composition containing the same” (ALPHALA CO., LTD., priority 2017, dated 2021)
